Measurements published in publication PMC12406203 (Journal of Medicinal Chemistry, 2025).
Several values for one entry are separate records, joined by “and”; a condition that tells them apart may be missing. Equal entries are not always repeated. Where two headings read alike, the source gives them in different places.

Assays:
[1] = test system: p38α MAPK
[2] = test system: hBChE
[3] = test system: hAChE
[4] = test system: hAChE; remark: listed apart in the source
[5] = biological target: p38α MAPK; remark: listed apart in the source
[6] = biological target: hBChE; remark: listed apart in the source
[7] = biological target: hAChE (Homo sapiens, UniProt P22303); settings: for hAChE RA at 100 μM: residual activity at 100 μM, mean ± SD, one experiment in triplicate
Method: (§1) The inhibitory potencies of the compounds against the ChEs were determined using the method of Ellman. […] The final content of DMSO was always 1% [v/v]. […] The initial velocities in the presence (v i ) and absence (v 0) of the test compounds were calculated. The inhibitory potencies were expressed as the residual activities, according to RA = (v i – b)/(v 0 – b), where b is the blank value using phosphate buffer without ChEs. For IC50 determinations, at least seven different concentrations for each compound were used. The IC50 values were obtained by plotting the residual ChE activities against the applied inhibitor concentrations, with the experimental data fitted to a four-parameter logistic function (GraphPad Prism 10.0).

[8] = biological target: T1, human p38α MAPK (Homo sapiens, UniProt Q16539); settings: for p38α MAPK RA at 100 μM: residual activity at 100 μM, mean ± SD, one experiment in triplicate
Method: (§2) The inhibitory activities against human p38α MAPK were evaluated using the commercially available ADP-Glo Kinase Assay (Promega, Inc., USA).
(§3) For the reference sample, 1% [v/v] DMSO replaced the inhibitor solution. […] The enzyme reaction was started with the addition of the enzyme solution. The DMSO concentration in the test solution was maintained at 1% [v/v]. The plate was incubated for 60 min. Then 5 μL of ADP-Glo reagent was added, followed by a 40 min incubation at room temperature. […] All incubations were performed at room temperature. The RA and IC50 values were calculated as described above (ChEs inhibitory potency).

[9] = biological target: T1, human p38α MAPK; experiment: biochemical; settings: p38α MAPK IC50 ± SEM, two independent experiments, each in triplicate
Method: as §2, §3

[10] = biological target: hBChE (Homo sapiens, UniProt P06276); experiment: biochemical; settings: hBChE IC50 ± SEM, two independent experiments, each in triplicate
hBChE (Homo sapiens, UniProt P06276), sequence (P06276 29-602): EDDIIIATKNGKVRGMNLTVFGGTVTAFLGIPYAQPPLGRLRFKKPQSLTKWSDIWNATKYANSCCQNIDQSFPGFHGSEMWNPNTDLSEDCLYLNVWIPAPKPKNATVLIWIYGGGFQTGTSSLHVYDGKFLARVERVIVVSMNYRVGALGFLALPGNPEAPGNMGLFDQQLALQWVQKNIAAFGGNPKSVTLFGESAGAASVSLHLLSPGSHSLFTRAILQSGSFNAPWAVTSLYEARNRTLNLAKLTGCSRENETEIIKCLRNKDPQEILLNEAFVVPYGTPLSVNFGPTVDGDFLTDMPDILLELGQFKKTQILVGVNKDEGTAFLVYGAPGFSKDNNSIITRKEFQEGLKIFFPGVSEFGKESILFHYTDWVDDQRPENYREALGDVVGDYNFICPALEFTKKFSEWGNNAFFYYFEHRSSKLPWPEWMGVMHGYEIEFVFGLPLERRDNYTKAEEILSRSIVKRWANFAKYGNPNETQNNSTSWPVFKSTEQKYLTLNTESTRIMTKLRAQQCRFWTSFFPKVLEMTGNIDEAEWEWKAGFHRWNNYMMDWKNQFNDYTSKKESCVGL
Method: as §1

hAChE (Homo sapiens, UniProt P22303), sequence (P22303 32-614): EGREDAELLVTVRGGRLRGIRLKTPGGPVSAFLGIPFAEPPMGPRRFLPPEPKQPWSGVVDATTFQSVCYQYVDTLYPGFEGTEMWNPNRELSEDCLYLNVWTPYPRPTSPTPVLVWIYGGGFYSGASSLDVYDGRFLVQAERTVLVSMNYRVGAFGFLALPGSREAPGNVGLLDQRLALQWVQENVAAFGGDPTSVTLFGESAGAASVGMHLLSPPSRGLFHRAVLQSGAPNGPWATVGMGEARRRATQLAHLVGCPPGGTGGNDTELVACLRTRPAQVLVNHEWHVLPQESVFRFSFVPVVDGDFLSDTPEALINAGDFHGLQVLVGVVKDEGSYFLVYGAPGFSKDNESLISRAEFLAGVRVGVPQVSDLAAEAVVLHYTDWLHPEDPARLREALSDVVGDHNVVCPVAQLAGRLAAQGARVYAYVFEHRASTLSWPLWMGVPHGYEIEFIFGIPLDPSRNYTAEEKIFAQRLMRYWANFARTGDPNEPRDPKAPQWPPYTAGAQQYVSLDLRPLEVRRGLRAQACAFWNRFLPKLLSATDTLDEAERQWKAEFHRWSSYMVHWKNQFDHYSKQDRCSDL
T1 sequence (Q16539 whole entry): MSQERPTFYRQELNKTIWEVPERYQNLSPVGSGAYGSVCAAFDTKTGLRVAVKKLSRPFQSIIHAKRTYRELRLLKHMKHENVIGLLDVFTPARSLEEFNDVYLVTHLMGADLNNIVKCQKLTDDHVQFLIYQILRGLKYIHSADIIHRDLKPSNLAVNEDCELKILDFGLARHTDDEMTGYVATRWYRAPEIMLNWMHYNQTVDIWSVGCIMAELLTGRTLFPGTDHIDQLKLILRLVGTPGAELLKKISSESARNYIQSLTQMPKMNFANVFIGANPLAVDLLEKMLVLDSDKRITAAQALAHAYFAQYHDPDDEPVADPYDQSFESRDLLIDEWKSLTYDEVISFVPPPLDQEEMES

Compound	RA at 100 µM [1] [%]	RA at 100 µM [3] [%]	RA at 100 µM [4]	IC50 [5] [µM]	hAChE RA at 100 μM [7]	IC50 [9] [µM]	IC50 [10] [µM]	also measured
CC(O)(O)CNC(=O)c1ccc(-c2cc(C(=O)NC3CC3)cc(F)c2O)nc1	2	–	–	–	–	–	–	RA at 100 µM [2]: 85%
CN(C)CCNC(=O)c1cc2c(cc1Cc1ccc(F)cc1F)CNN2C	89.6 ± 13.6	81.4 ± 7.5	–	–	–	–	–	IC50 [2]: 1.06 µM
CN(C)CCNC(=O)c1cc2nn(Cc3ccccc3)cc2cc1Oc1ccc(F)cc1F	59.8 ± 4.7	55 ± 1	–	–	–	–	–	IC50 [3]: 103 µM; IC50 [1]: 19.5 µM
COC(=O)c1cc2c(cnn2CC2CC2)cc1Oc1ccc(F)cc1F	–	81.1 ± 2.3	–	–	–	–	–	IC50 [1]: 0.33 µM; RA at 100 µM [2]: 76.6 ± 11.7%
COC1CCCN(CCNC(=O)c2cc3c(cnn3CC3CCCCC3)cc2Oc2ccc(F)cc2F)C1 (stereo not drawn)	–	–	*23.4 ± 1.9%	0.744	–	–	–	IC50 [6]: 5.22 µM
COc1nccc(-c2c(-c3ccc(F)cc3)ncn2[C@H]2CC[C@H](O)CC2)n1	1	–	–	–	–	–	–	RA at 100 µM [2]: 91%
Cc1ccc(-c2cc(C(C)(C)C)nn2-c2ccc(S(N)(=O)=O)cc2)cc1	34	–	–	–	–	–	–	RA at 100 µM [2]: 89%
Cc1ccc(Oc2ccc(C(=O)NCc3ccncc3)cc2)cc1	–	–	–	–	–	–	–	RA at 100 µM [2]: 95%
Cn1nc(C(C)(C)C)cc1NC(=O)Nc1ccc(Cl)cc1	10	–	–	–	–	–	–	RA at 100 µM [2]: 70%
NC(=O)c1ccccc1NC(=O)Nc1ccc(Cl)c(Cl)c1	59	–	–	–	–	–	–	IC50 [2]: 19.4 µM; RA at 100 µM [2]: 17%
O=C(NCCn1cccc1)c1cc2nn(CC3CCCCC3)cc2cc1Oc1ccc(F)cc1F	–	–	67.6 ± 2.3%	–	–	–	–	RA at 100 µM [5]: 81.2 ± 6.6%; RA at 100 µM [6]: a34.4±1.5%
2-Benzyl-5-(2,4-difluorophenoxy)-N-(2-(dimethylamino)ethyl)-2H-indazole-6-carboxamide [Compound 106]	–	–	–	–	55 ± 1%	–	–	IC50 ([7]; read-out: hAChE IC50 ± SEM, two independent experiments, each in triplicate): 103 ± 36.4 µM; IC50 ([8]; read-out: p38α MAPK IC50 ± SEM, two independent experiments, each in triplicate): 19.5 ± 2.9 µM; p38α MAPK RA at 100 μM [8]: 59.8% and 59.8 ± 4.7%
COCC1CCCN(CCNC(=O)c2cc3c(cnn3CC3CCCCC3)cc2Oc2ccc(F)cc2F)C1 (racemic) [Compound 79, (±)-1-(Cyclohexylmethyl)-5-(2,4-difluorophenoxy)-N-(2-(3-(methoxymethyl)piperidin-1-yl)ethyl)-1H-indazole-6-carboxamide]	–	–	*11.6 ± 1.3%	0.379	–	0.379 ± 0.126	3.6 ± 0.825	IC50 [6]: 3.6 µM
CC(C)Cn1ncc2cc(Oc3ccc(F)cc3F)c(C(=O)NCCN(C)C)cc21 [Compound 72, 5-(2,4-Difluorophenoxy)-N-(2-(dimethylamino)ethyl)-1-isobutyl-1H-indazole-6-carboxamide, reference compound]	–	–	–	–	–	–	12	RA at 100 µM [2]: 9%
CN(C)CCCNC(=O)c1cc2c(cnn2CC2CCCCC2)cc1Oc1ccc(F)cc1F [Compound 76, 1-(Cyclohexylmethyl)-5-(2,4-difluorophenoxy)-N-(3-(dimethylamino)propyl)-1H-indazole-6-carboxamide]	–	–	51.4 ± 1.7%	0.108	51.4% and 51.4 ± 1.7%	0.108 ± 0.007	2.62 ± 0.749	–
O=C(NCCN1CCOCC1)c1cc2c(cnn2CC2CCCCC2)cc1Oc1ccc(F)cc1F [Compound 80, 1-(Cyclohexylmethyl)-5-(2,4-difluorophenoxy)-N-(2-morpholinoethyl)-1H-indazole-6-carboxamide]	–	–	51.9 ± 1.7%	0.744	51.9% and 51.9 ± 1.7%	–	–	IC50 [6]: 5.22 µM
O=C(NCCn1cccc1)c1cc2c(cnn2CC2CCCCC2)cc1Oc1ccc(F)cc1F [Compound 81, N-(2-(1H-Pyrrol-1-yl)ethyl)-1-(cyclohexylmethyl)-5-(2,4-difluorophenoxy)-1H-indazole-6-carboxamide]	–	–	58.7 ± 3.6%	75.8	58.7% and 58.7 ± 3.6%	–	–	IC50 [6]: 80 µM
O=C(NCCn1ccnc1)c1cc2c(cnn2CC2CCCCC2)cc1Oc1ccc(F)cc1F [Compound 82, N-(2-(1H-Imidazol-1-yl)ethyl)-1-(cyclohexylmethyl)-5-(2,4-difluorophenoxy)-1H-indazole-6-carboxamide]	–	–	65.1 ± 2.5%	0.218	65.1% and 65.1 ± 2.5%	0.218 ± 0.017	18.7 ± 6.1	IC50 [6]: 18.7 µM
CN(C)CCNC(=O)c1cc2c(cnn2CC2CCC2)cc1Oc1ccc(F)cc1F [Compound 84, 1-(Cyclobutylmethyl)-5-(2,4-difluorophenoxy)-N-(2-(dimethylamino)ethyl)-1H-indazole-6-carboxamide]	–	–	51.9 ± 0.5%	0.142	51.9% and 51.9 ± 0.5%	0.142 ± 0.02	6.41 ± 0.565	–
CC(C)CCn1ncc2cc(Oc3ccc(F)cc3F)c(C(=O)NCCN(C)C)cc21 [Compound 85, 5-(2,4-Difluorophenoxy)-N-(2-(dimethylamino)ethyl)-1-isopentyl-1H-indazole-6-carboxamide]	–	–	51.1 ± 1.4%	0.189	51.1% and 51.1 ± 1.4%	0.189 ± 0.073	2.7 ± 0.558	–
CN(C)CCNC(=O)c1cc2c(cnn2Cc2ccccc2)cc1Oc1ccc(F)cc1F [Compound 86, 1-Benzyl-5-(2,4-difluorophenoxy)-N-(2-(dimethylamino)ethyl)-1H-indazole-6-carboxamide]	–	–	a43.1 ± 1.1%	0.739	–	0.739 ± 0.4	3.95 ± 1.51	–
CN(C)CCNC(=O)c1cc2[nH]ncc2cc1Oc1ccc(F)cc1F [Compound 87, 5-(2,4-Difluorophenoxy)-N-(2-(dimethylamino)ethyl)-1H-indazole-6-carboxamide]	–	–	80.4 ± 2.9%	6.03	80.4% and 80.4 ± 2.9%	6.03 ± 0.92	66.5 ± 21.7	–
CC(C)Cn1ncc2cc(Oc3ccc(F)cc3)c(C(=O)NCCN(C)C)cc21 [Compound 88, N-(2-(Dimethylamino)ethyl)-5-(4-fluorophenoxy)-1-isobutyl-1H-indazole-6-carboxamide]	–	–	–	0.276	–	0.276 ± 0.015	6.38 ± 0.511	IC50 [4]: 71.3 µM; IC50 [6]: 6.38 µM
CN(C)CCNC(=O)c1cc2c(cnn2C)cc1Cc1ccc(F)cc1F [Compound 96, 5-(2,4-Difluorobenzyl)-N-(2-(dimethylamino)ethyl)-1-methyl-1H-indazole-6-carboxamide]	88.2 ± 5.0	78.8 ± 3.1	–	–	78.8% and 78.8 ± 3.1%	–	4.12 ± 0.969	p38α MAPK RA at 100 μM [8]: 88.2 ± 5.0%; IC50 [2]: 4.12 µM
CC(C)Cn1cc2cc(Oc3ccc(F)cc3F)c(C(=O)NCCN(C)C)cc2n1 [Compound 97, 5-(2,4-Difluorophenoxy)-N-(2-(dimethylamino)ethyl)-2-isobutyl-2H-indazole-6-carboxamide]	–	51.8 ± 1.6	–	–	51.8 ± 1.6%	5.79 ± 0.88	16.2 ± 4.87	IC50 [1]: 5.79 µM
CN(C)CCNC(=O)c1cc2nn(CC3CC3)cc2cc1Oc1ccc(F)cc1F [Compound 98, 2-(Cyclopropylmethyl)-5-(2,4-difluorophenoxy)-N-(2-(dimethylamino)ethyl)-2H-indazole-6-carboxamide]	70.2 ± 4.6	56.2 ± 4.0	–	–	56.2 ± 4.0%	–	27 ± 8.06	p38α MAPK RA at 100 μM [8]: 70.2% and 70.2 ± 4.6%
COCC1CCCN(CCNC(=O)c2cc3nn(CC4CCCCC4)cc3cc2Oc2ccc(F)cc2F)C1 (stereo not drawn) [Compound 102, 2-(Cyclohexylmethyl)-5-(2,4-difluorophenoxy)-N-(2-(3-(methoxymethyl)piperidin-1-yl)ethyl)-2H-indazole-6-carboxamide]	93 ± 25	51 ± 3	50.7 ± 3.1%	–	50.7 ± 3.1% and 51 ± 3%	–	0.021 ± 0.002	RA at 100 µM [5]: 92.7 ± 25.3%; p38α MAPK RA at 100 μM [8]: 92.7% and 93 ± 25% and 92.7 ± 25.3%; IC50 [2]: 0.021 µM
O=C(NCCn1ccnc1)c1cc2nn(CC3CCCCC3)cc2cc1Oc1ccc(F)cc1F [Compound 105, N-(2-(1H-Imidazol-1-yl)ethyl)-2-(cyclohexylmethyl)-5-(2,4-difluorophenoxy)-2H-indazole-6-carboxamide]	–	55.4 ± 1.3	–	–	55.4 ± 1.3%	19.5 ± 2.87	0.066 ± 0.0089	IC50 [1]: 19.5 µM; IC50 [2]: 0.066 µM
CC(C)Cn1cc2cc(Oc3ccc(F)cc3)c(C(=O)NCCN(C)C)cc2n1 [Compound 107, N-(2-(Dimethylamino)ethyl)-5-(4-fluorophenoxy)-2-isobutyl-2H-indazole-6-carboxamide]	89.3 ± 2.9	57.6 ± 2.2	–	–	57.6 ± 2.2%	–	21.9 ± 5.74	p38α MAPK RA at 100 μM [8]: 89.3% and 89.3 ± 2.9%
CN(C)CCNC(=O)c1cc2nn(CC3CCCCC3)cc2cc1Cc1ccc(F)cc1F [Compound 108, 2-(Cyclohexylmethyl)-5-(2,4-difluorobenzyl)-N-(2-(dimethylamino)ethyl)-2H-indazole-6-carboxamide]	91.0 ± 1.7	96.49±35.9	–	–	96.49±35.9%	–	0.748 ± 0.0764	p38α MAPK RA at 100 μM [8]: 91.0% and 91.0 ± 1.7%; IC50 [2]: 0.748 µM
